Measured values as given in patent US6121463A, “Alkyl-4-silylheterocyclic phenols and thiophenols useful as antioxidant agents” (priority 1998, dated 2000).

Tests used:
[1] = Serum clinical chemistries in male Sprague-Dawley rats after dietary admixture; format: in vivo, Sprague-Dawley rat; settings: 0.3% diet, 4 days, N=5
Text: (§1) A typical experiment consists of 4-6 groups of rats (N=5 per group) with 1 group being a control which receives no MDL compound and the other groups being treated with 0.3% MDL compound. Some of the compounds are either repeated at 0.3% or evaluated again at the lower dose of 0.1%. House Male Sprague-Dawley rats, 50-100 g, (Harlan Laboratories, Indianapolis, Ind.) in groups of 5, feeding ad libitum water and Purina Rodent chow (#5002) with or without MDL compound as a dietary admixture for 4 days. Make dietary admixtures (0.3%) by mixing 1.2 grams of an MDL compound with 400 grams of Purina rodent chow (#5002). Mix the MDL compound with approximately 50 grams of food using a mortar and pestle. This is added to the remainder of the food and mixed for 3 hours on a rotary mixer. In the morning of day 5, anesthetize non-fasted rats with carbon dioxide, and collect blood by cardiac puncture. Sacrifice rats by cervical dislocation. Record body weights and liver weights in grams. Record food consumption as grams.cndot.day^-1 .cndot.rat^-1. Deaths are recorded as mortality. Use aliquots of fresh serum for clinical chemistries, thiobarbituric acid reactive substances (TBARS) and conjugated diene measurements. Freeze aliquots of serum (~0.5mL) and whole livers at -20° C. for compound and metabolite concentration determination at a later time.
Allow blood to clot at room temperature for 30 minutes. Obtain serum after centrifugation for 10 min at 4° C. at 3000 rpm in a Beckman J-6M/E centrifuge with a JS-4.2 rotor. Analyze fresh serum by a COBAS MIRA S autoanalyzer (Roche Diagnostics) using Roche diagnostic reagents for the following clinical chemistry measurements: alkaline phosphatase (ALP, kit #44553), alanine transaminase (ALT, kit #42375), aspartate aminotransferase (AST, kit #42381), total cholesterol (CHOL, kit #44334), triglyceride (TG, kit #44120), and glucose (GLU, kit #44558). Calculate ALP, ALT, and AST as units/L. Calculate cholesterol, triglycerides, and glucose as mg/dL.

[2] = system: oxidation of serum lipids; assay: Thiobarbituric acid reactive substances (TBARS) assay in serum of treated rats; format: in vivo, Sprague-Dawley rat; settings: 0.3% diet, 4 days, male rats, N=5; CuSO4 oxidation of serum, 37° C., 3 hr
Text: as §1, with “Sacrifice rats by cervical dislocation. Record body weights and liver weights in grams. Record food consumption as grams.cndot.day^-1 .cndot.rat^-1.” left out, “Use aliquots of fresh serum for clinical chemistries, thiobarbituric acid reactive substances (TBARS) and conjugated diene measurements. Freeze aliquots of serum (~0.5mL) and whole livers at -20° C. for compound and metabolite concentration determination at a later time.” left out
In this assay the oxidation of serum lipids is initiated with CuSO4, resulting in the formation of aldehydes, such as malondialdehyde (MDA). Upon incubation with thiobarbituric acid, the absorbance of the aldehydes can be detected at 530-540 nm. […] Measure absorbances at 540 nm using a Biotek model EL311 microplate reader. The nmoles of MDA produced are calculated from a standard curve of 0 to 10 nmoles of MDA prepared from malonaldehyde bis(dimethylacetal). […]

[3] = Animal parameters in male Sprague-Dawley rats; format: in vivo, Sprague-Dawley rat; settings: 0.3% diet, 4 days; for body wt. as a percent of control / food (grams eaten per day per rat) as a percent of control / lw/bw (liver weight/body weight) as a percent of control: N=5; for mortality at 96 h: rat, in vivo, po, N=5, read-out: mortality (deaths per group)
Text: as §1

oxidation of lipids = assay: Conjugated diene determination (lag phase) in pooled serum of treated rats; format: in vivo, Sprague-Dawley rat; settings: 0.3% diet, 4 days; mean of 2 determinations of pooled samples, N=5; control = 61 min.
Text: as §1, with “Use aliquots of fresh serum for clinical chemistries, thiobarbituric acid reactive substances (TBARS) and conjugated diene measurements. Freeze aliquots of serum (~0.5mL) and whole livers at -20° C. for compound and metabolite concentration determination at a later time.” left out
Conjugated diene lag phase is another indicator of the oxidation of lipids. […] Measure the absorbances of all cuvettes and set the instrument baseline to zero using the lowest absorbing sample. […] Record the absorbance of each cuvette at 2 min intervals for a period of 840 min. […]

ICAM-1 = settings: vascular endothelial cells; Mauri, N. et al.; cited from earlier work

SMILES | ALP (alkaline phosphatase) as a percent of control [1] [%] | ALT (alanine aminotransferase) as a percent of control [1] [%] | AST (aspartate aminotransferase) as a percent of control [1] [%] | CHOL (total cholesterol) as a percent of control [1] [%] | GLUC (glucose) as a percent of control [1] [%] | TRIG (triglycerides) as a percent of control [1] [%] | TBARS (thiobarbituric acid reactive substances) as a percent of control [2] [%] | body wt. as a percent of control [3] [%] | food (grams eaten per day per rat) as a percent of control [3] [%] | lw/bw (liver weight/body weight) as a percent of control [3] [%] | mortality at 96 h [3] [%] | CONJ. DIENE (conjugated diene lag phase) (oxidation of lipids) [min] | inhibition of cytokine-induced expression of ICAM-1 (ICAM-1)
CC(C)(C)c1cc(OC[Si](C)(C)c2ccco2)cc(C(C)(C)C)c1O [106,939] | 123 | 92 | 106 | 120 | 83 | 108 | 64 | 92 | 88 | 130 | 0 | – | –
CC(C)(C)c1cc(OC[Si](C)(C)c2cccs2)cc(C(C)(C)C)c1O [107,965] | 137 | 96 | 89 | 121 | 86 | 90 | 57 | 84 | 84 | 118 | 0 | 273 | –
CC(=O)N[C@@H](CS)C(=O)O [N-acetylcysteine] | – | – | – | – | – | – | – | – | – | – | – | – | but not ICAM-1
S=C(S)N1CCCC1 [pyrollidine dithiocarbamate] | – | – | – | – | – | – | – | – | – | – | – | – | but not ICAM-1
